Results reported in US5688769A, “Treatment method” (Uclaf; Roussel, priority 1979, dated 1997).

How the values were obtained:
[1] = tested on: testicular steroidogensis; test: Inhibitory activity against testicular steroidogenesis in men in good health, single intranasal dose; format: in vivo; conditions: human, single intranasal dose 500 μg
Protocol: The said product was administered intranasally at a dose of 500 μg in a few drops of distilled water at 8 A.M. on the third day of the test. For 2 days prior to the treatment and for 6 days after the treatment, samples of blood were taken daily at 8 A.M., 3 P.M. and 10 P.M. On the day of administration of the LH-RH agonist, blood samples were taken at 11 A.M. and 6 P.M.
The seric concentrations of LH and FSH were measured by radioimmuno-logic dosages with double antibodies and the antibodies for measuring LH and FSH were furnished by the National Pituitary Agency of N.I.H. in Bethesda, Md. The seric concentrations of steroids was measured by radioimmuno-logic dosages in which one ml of serum was extracted with ether and the steroids were separated on a LH-20 column before measuring with radioimmuno-logic dosages. The radioimmuno-logic dosage results were determined by a program derived from model II of Rodbard et al [Second Karolinska Symposium on Research Methods in Reproductive Endocrinology, Diezfalusky Editor, Copenhague (1970), p. 79-103]. The statistical significance was determined by the "multiple level test" of Duncan-Kramer [Kramer, Biometrics, Vol 12 (1956), p. 307]. The results are shown in the FIGS. 1A to 1H filed herewith.

ovarian steroidogenosis = test: Inhibitory activity on ovarian steroidogenesis in women; format: in vivo; conditions: for reduction of seric levels of progesterone as compared to the controls: typical subject (FIGS. 3A-3D)
Protocol: The inhibitory activity of D Ser (Tbu)^6 or Gly^10 LH-RH ethylamide on ovarian steroidogenosis in women was determined on 6 women aged 26 to 35 years with normal and regular menstrual cycles and without prior endocrinal or gynecological problems. […] […] Daily blood samples were taken between 4 and 6 P.M. to measure seric levels of LH, FSH, progesterone and estradiol which were determined by radioimmuno-logic tests with double antibodies. The antibodies to measure LH and FSH were furnished by the National Pituitory Agency of N.I.H. of Bethesda, Md.
Estradiol and progesterone were measured with highly specific antibodies developed against 7-(O-carboxymethyl)-oxime of estradiol and 12-(O-carboxymethyl)-oxime of progesterone, respectively [3H] 17β-estradiol and ^125 I-progesterone-12-[0-carboxymethyl)-oxime]used as tracers. The serum was extracted with benzene and the steroids were separated with a LH 20 column before the determination. The radioimmunological results were exploited by the program derived from model II of Rodbard and Lewald as in Example 1 and the statistical significance was measured by the multiple level test of Ducan-Kramer of Example 1. The results are shown in the graphs of sheets 1 to 16 of the Figures.

[2] = tested on: testicular steriodogenosis; test: Inhibitory activity on testicular steroidogenesis in a patient with prostate cancer; format: in vivo, human; conditions: intranasal 500 μg twice a day
Excerpt: The results are reported in the graphs of sheet 2 of the Figures.

With `CCNC(=O)[C@@H]1CCCN1C(=O)[C@H](CCCNC(=N)N)NC(=O)[C@H](CC(C)C)NC(=O)[C@@H](COC(C)(C)C)NC(=O)[C@H](Cc1ccc(O)cc1)NC(=O)[C@H](CO)NC(=O)[C@H](Cc1c[nH]c2ccccc12)NC(=O)[C@H](Cc1c[nH]cn1)NC(=O)[C@@H]1CCC(=O)N1` [D Ser (Tbu)^6 of Gly^10 LH-RH ethylamide] the “duration of the lessening of cyclicity and drop of seric levels of testicular steroids” value [1] was 3 days, the “level of seric progesterone, course” value (ovarian steroidogenosis; 2 cycles of treatment (FIGS. 4A-4F)) was “accelerated diminution” and the “level of progesterone, % of control values (pretreatment cycles = 100%)” value (ovarian steroidogenosis; 12 cycles of post-treatment) was 99%. For the same molecule, the “level of progesterone, % of control values (pretreatment cycles = 100%)” value (ovarian steroidogenosis; 12 cycles of treatment) was 46%, the “level of progesterone reduced as compared to the controls” value (ovarian steroidogenosis; all 12 treatment cycles (FIGS. 5A-5L), scale 13 to 127%) was 46% and the “reduction of seric levels of progesterone as compared to the controls” value (ovarian steroidogenosis; first of the 2 cycles of treatment, intranasal 500 μg at 8 A.M. and 5 P.M. of one day) was 13%. The “reduction of seric levels of progesterone as compared to the controls” value (ovarian steroidogenosis; second of the 2 cycles of treatment) was 34%, the “androgenic steroids, plasmatic level” value [2] was “diminution” and the level of testosterone ([2]; two weeks of treatment) was “stabilized at a very low level”.
